Patent US11926679B2, “Oligopeptide search method, oligopeptide, modified peptide, and immunoassay method” (ZEON CORPORATION, priority 2016, dated 2024)

What was measured:
[1] = Adsorption of antigen to multi-well plate, 1060R plate; assay type: binding; details: FIG. 6
Description: (§1) The condition for adsorption of an antigen to a multi-well plate was examined. A comparison of adsorption of an antigen was made by using a 96-well plate obtained by injection molding of a hydride of a norbornene-based ring-opened polymer [Zeonor® 1060R, manufactured by Zeon Corporation] (hereinafter referred to as a “1060R plate”) and a 96-well plate made of polystyrene (product name “SUMILON® (SUMILON is a registered trademark in Japan, other countries, or both) ELISA Plate H”, manufactured by Sumitomo Bakelite Co., Ltd.; hereinafter referred to as a “PS plate”).
(§2) A peptide in which the amino acid sequence of […](SEQ ID NO: 7) that has the property of specifically attaching to a norbornene-based polymer is bound to the N terminal of the amino acid sequence of Cys-Lys-Val-Leu-Arg-Arg-His (SEQ ID NO: 6) of the antibody recognition site of the human BNP (brain natriuretic peptide) (hereinafter referred to as a “synthetic BNP antigen”) was synthesized. […]
(§3) Then, the synthetic BNP antigen immobilized in the plate was allowed to develop a color using a coloring reagent (manufactured by NACALAI TESQUE, INC., product name “ELISA POD Substrate TMB Solution”), and quenched with a dilute sulfuric acid, followed by measuring the absorbance at 450 nm by an absorbance plate reader.

[2] = Adsorption of antigen to multi-well plate, PS plate; assay type: binding; details: FIG. 6
Description: as §1, §2, §3

[3] = Phage display peptide library search on norbornene-based polymer culture dish; assay type: binding; details: tertiary phage solutions; washes with PBS, Glycine HCl pH 2, Glycine NaOH pH 10, then PBS containing 10% DMSO
Procedure: As a phage display peptide library, Ph.D.-C7C Phage Display Peptide Library Kit (manufactured by New England Biolabs Japan Inc.) was used.
The phage solution was dissolved in a phosphate buffer (PBS; a mixed solution of 137 mmol/l NaCl, 8.1 mmol/l Na2HPO4, 2.68 mmol/l KCl, and 1.47 mmol/l KH2PO4, pH 7.4) to give a peptide library.
Thereafter, the bottom of the culture dish was washed three times with PBS.
Subsequently, it was washed once with 40 mM Glycine HCl Buffer (pH 2.2) adjusted to pH 2, and further, 40 mM Glycine NaOH (pH 10) adjusted to pH 10 was added dropwise to it.
The dropped solution was collected, and the pH was immediately neutralized with a dilute hydrochloric acid (pH=7.0) to obtain a “phage solution washed with an alkali and collected”.
Subsequently, a PBS containing 10% DMSO was added dropwise to the bottom of the culture dish, and the dropped solution was collected to obtain a “phage solution washed with DMSO and collected.” […]
The gene sequences of the phages contained in the two phage solutions obtained by acquisition of the tertiary phage solutions were read to obtain corresponding amino acid sequences.

[4] = tested on: CHO (Chinese Hamster Ovary) cells; assay: CHO cell shape on polypeptide-coated 1060R plate; assay type: cell-based; details: microscope, 5 hours after the start of culture, serum-free medium, coating 10 μg/ml
Procedure: Each of the solutions which this Polypeptide 3 and Polypeptide 2 obtained in Example 2 were dissolved in PBS in a concentration of 10 μg/ml respectively was filter-sterilized. To an EOG-sterilized 1060R plate, 50 μL per well of each of the resultant solution was added. The plates were allowed to stand at room temperature (25° C.) for 1 hour.
After allowed to stand, each of the 1060R plates incubated with Polypeptide 3 and Polypeptide 2 obtained in Example 2 was washed three times with sterilized PBS to obtain a Polypeptide 3-coated 1060R plate and a Polypeptide 2-coated 1060R plate.
To wells of the two plates thus obtained and a 1060R plate that was not coated with a polypeptide, CHO (Chinese Hamster Ovary) cells suspended in a serum-free medium (serum free medium ESF SFM Serum⋅Free Medium for Hybridoma, CHO & 293 Cells, manufactured by Expression Systems, LLC) were added and maintained the culture in a CO2 incubator at 37° C.

[5] = Blocking effect against non-specific adsorption of antibody, 1060R plate; details: solution containing no protein, 0.05% or 0.2% in PBS, FIG. 8
Description: (§4) The container on which the synthetic BNP antigen was immobilized was blocked in the same manner as in Example 5, using a phosphate buffered saline containing 10% blocking agent (manufactured by NACALAI TESQUE, INC., product name “Blocking One”) containing a widely used casein (“Blocking One having a final concentration of 10%”), a phosphate buffered saline containing 0.05% Tween® 20 (“Tween® 20 PBS having a final concentration of 0.05%”), and a phosphate buffered saline containing 0.2% Tween® 20 (“Tween® 20 PBS having a final concentration of 0.2%”) as blocking agents, and compared to the condition without the blocking treatment.
(§5) As microwell plates, the 1060R plate (experimental example) and the PS plate (comparative example) were used. […]
(§6) After the resultant was allowed to stand, the solution in the wells was removed, followed by washing three times with a phosphate buffered saline containing 0.05% Tween® 20. […] After adding 0.1 M sulfuric acid as a stop solution, the absorbance at 450 nm was measured with a light absorption plate reader.
(§7) The value for each condition was determined using the relative value to the measured absorbance value of the well that was not subjected to blocking in the 1060R plate.

[6] = Blocking effect against non-specific adsorption of antibody, PS plate; details: containing no protein, FIG. 8
Description: as §4, §5, §6, §7

[7] = Evaluation of adhesiveness to the container (anti-6-His detection, absorbance at 450 nm); assay type: binding
Procedure: Polypeptide 1, Polypeptide 2, and a human normal IgG antibody (manufactured by Wako Pure Chemical Industries, Ltd.) were dissolved in a PBS solution and 10% DMSO in PBS (10% DMSO PBS) each in a concentration of 10 μg/ml to give various solutions.
To a 96-well plate obtained by injection molding of a hydride of a norbornene-based ring-opened polymer [Zeonor® 1060R, manufactured by Zeon Corporation] (hereinafter referred to as a “1060R plate”) and a 96-well plate made of polystyrene (product name “Falcon® (Falcon is a registered trademark in Japan, other countries, or both)”, manufactured by Corning Incorporated; hereinafter referred to as a “TCPS plate”), each of the polypeptide solutions prepared above was added in an amount of 50 μL/well (N=3) and the plates were allowed to stand at room temperature (25° C.) for 1 hour.
After allowed to stand, the insides of the wells of the 1060R plate and the TCPS plate were washed three times with T-TBS (0.05 m Tris hydrochloric acid, 0.15 m sodium chloride, 0.05% Tween® 20; pH 7.6). […]
For the wells of each plate, the absorbance at 450 nm was measured using a well plate reader apparatus (manufactured by CORONA ELECTRIC Co., Ltd.).

## synthetic BNP antigen: peptide in which SEQ ID NO: 7 (norbornene polymer-attaching sequence) is bound to the N terminal of SEQ ID NO: 6, antibody recognition site of human BNP (ACTVDSCLTCGGGGGSSSGLGCKVLRRH)
[1]
  attachment of antigen to the plate (absorbance at 450 nm): attached
[2]
  attachment of antigen to the plate (absorbance at 450 nm): not attached

## TVDSCLT [Thr-Val-Asp-Ser-Cys-Leu-Thr]
[3]
  adhesion/elution behaviour of the amino acid sequence on the norbornene-based polymer dish: continued to adhere even after washed with an alkali and was eluted with an organic solvent

## TVDNSLA [Thr-Val-Asp-Asn-Ser-Leu-Ala]
[3]
  adhesion/elution behaviour of the amino acid sequence on the norbornene-based polymer dish: eluting at a high pH

## ACTVDSCLTCGGGGGRGDSPHHHHHH [Polypeptide 3]
[4]
  shape of CHO cells on coated 1060R plate: shapes in which the cells were stretched

## polyoxyethylene sorbitan monolaurate [Tween® 20]
[5]
  blocking effect (relative absorbance at 450 nm): a blocking effect was observed
[6]
  blocking effect (relative absorbance at 450 nm): a blocking effect was lower as compared to a blocking agent containing a protein

## ACTVDSCLTCGGGGGHHHHHH [Polypeptide 2]
[7]; 10 μg/ml polypeptide, 1 hour at room temperature, FIG. 2
  absorbance at 450 nm of the 1060R plate compared with the TCPS plate: higher than that of the TCPS plate
[7]; conclusion from FIG. 2
  adhesiveness to a norbornene-based polymer: high adhesiveness
[4]
  shape of CHO cells on coated 1060R plate: rounded shapes
